Laboratory results as given in US20260096569A1, “EDIBLE COATING WITH ANTIMICROBIAL PROPERTIES” (priority 2021, published 2026).
Entries after “also recorded” stand apart in the source; their conditions may differ. Where two headings read alike, the source gives them in different places.

Tests used:
[1] = test system: Colletotrichum; experiment: Screening for stem end rot (Colletotrichum) infection control, California avocados; type: in vivo
From the text: To screen for infection control of stem end rot (Colletotrichum) with epicatechin, ASM, and MeSA (methyl salicylate), California avocados size 84 were infected with Colletotrichum spores (103 spores/ml) and treated with 0.01% an imidazole antifungal agent, such as Prochloraz, 0.1% epicatechin, 0.01% ASM, or 0.1% MeSA, as indicated. Uninfected and infected controls were not exposed to treatments. […] Disease index is on a scale from 0-1 and takes into account both the percent of fruit infected and the average severity of the infection in the sample group. The average severity is on a scale from 0-4. Percent disease index is calculated as follows: (Percent infected*Average infection severity)/4.

[2] = test system: Colletotrichum; experiment: Salicylic acid, sodium salicylate and chitosan on stem end rot of infected California avocados; type: in vivo
Experimental: To determine the impact of salicylic acid, sodium salicylate, and chitosan on stem end rot (Colletotrichum), California avocados size 96 were infected with 10^3 Colletotrichum spores and treated with 0.01% of an imidazole antifungal agent, such as Prochloraz, 0.05% salicylic acid, 0.1% salicylic acid, 0.2% salicylic acid, 1% sodium salicylate, or 1% chitosan+5 mM C10 monoglyceride. Uninfected and infected controls were not exposed to treatments. Following treatment, the percent disease index of stem end rot was determined for each avocado. […] However, the 1% chitosan+5 mM C10 monoglyceride treatment sample size was 14 avocados.

[3] = test system: vascular browning; experiment: Mixture and carvacrol on avocados: incidence of vascular browning; type: in vivo; settings: 10 g/L carvacrol alone
Experimental: (§1) Fifty-four avocados were tested per treatment. Avocados were dipped into treatment liquids and allowed to dry. Respiration (CO2 production), mass loss, disease indices of stem end rot and vascular browning were measured. […] The timing of spoilage was affected by treatments (FIG. 14).

[4] = Mixture and carvacrol on organic lemons in cold storage: mass loss and quality; type: in vivo; settings: carvacrol alone (10 g/L carvacrol+50 g/L ethanol), dried in ambient conditions
Experimental: Batches of 120 lemons per condition were used. Lemons were dipped into a treatment or left untreated, dried in ambient conditions, and stored at 8° C., 80% relative humidity for several weeks. Mass loss was measured.

[5] = Mixture with increasing carvacrol and ethanol on organic lemons: mass loss and quality; type: in vivo; settings: heated drying in a drying tunnel
Experimental: Specifically, 1 g/L carvacrol+5 g/L ethanol, 2 g/L carvacrol+10 g/L ethanol, 3 g/L carvacrol+15 g/L ethanol, 6 g/L carvacrol+30 g/L ethanol, or 8 g/L carvacrol+40 g/L ethanol. Batches of 120 lemons per condition were used. Lemons were dipped into a treatment or left untreated, dried in heated conditions in a drying tunnel, and stored at ambient conditions. Mass loss was measured.

[6] = Organic mixture and carvacrol on wounded organic lemons: mass loss and skin damage; type: in vivo; settings: carvacrol alone (5 g/L carvacrol+0.25 g/L sodium stearate)
From the text: To determine the impact of an organic mixture of glycerol monostearate and sodium stearate mixed with carvacrol on mass loss and mold incidence in organic lemons, unwaxed California organic lemons sized 140 were exposed to 30 g/L an organic mixture of glycerol monostearate and sodium stearate mixed, 30 g/L an organic mixture of glycerol monostearate and sodium stearate+5 g/L carvacrol, or 5 g/L carvacrol+0.25 g/L sodium stearate, or were untreated. Batches of 140 lemons per condition were used. Lemons were physically wounded with the stem of another lemon, dipped into a treatment or left untreated, and dried in ambient conditions. Mass loss and disease incidence (% of group with mold) were measured. The addition of carvacrol to an organic mixture of glycerol monostearate and sodium stearate mixed with carvacrol increased mass loss factor to 1.7×compared to the organic mixture of glycerol monostearate and sodium stearate mixed with carvacrol alone, which was 1.3× of the untreated group (FIG. 15A). The addition of carvacrol to an organic mixture of glycerol monostearate and sodium stearate mixed with carvacrol reduced the incidence of mold ˜12% from untreated lemons and 22% from an organic mixture of glycerol monostearate and sodium stearate mixed with carvacrol alone treated lemons after 6.5 days of ambient storage (FIG. 15B).

[7] = Mixture and carvacrol on avocados: respiration and mass loss; type: in vivo
Experimental: as §1

[8] = test system: stem end rot; experiment: Mixture and carvacrol on avocados: incidence of stem end rot; type: in vivo; settings: 10 g/L carvacrol alone
Experimental: as §1

[9] = test system: Colletotrichum; settings: cited from earlier work
[10] = Avocado storage, five days: CO2 production (respiration), salicylic acid and mixture; type: in vivo; settings: Mexican avocados size 60, 0.6 g/L or 2.0 g/L salicylic acid
From the text: (§2) To determine the impact of salicylic acid and a mixture of 94% glycerol monostearate and a 6% fatty acid salt combinatorial treatment on avocado, Mexican avocados size 60 were exposed to 0.6 g/L salicylic acid, 2.0 g/L salicylic acid, 30 g/L a mixture of glycerol monostearate and sodium stearate, or 0.6 g/L salicylic acid+30 g/L a mixture of glycerol monostearate and sodium stearate treatments. To treat, avocados were removed form cold storage and left at room temperature for four hours. Avocados were then dipped in treatments as indicated and dried in a drying tunnel. Uninfected controls were not exposed to treatments. Avocados were monitored for five days for CO2 production (respiration) rate, mass loss, incidence of stem end rot, and severity of stem end rot disease on a 1-4 stem end rot severity scale (STR). The experiment was concluded when untreated avocados reached a ripeness of <35 shore. […] This may be due to changes in barrier stability or properties.

[11] = test system: Colletotrichum; experiment: Salicylic acid and pH on stem end rot of infected Mexican avocados; type: in vivo
Experimental: To determine the impact of salicylic acid and pH on stem end rot (Colletotrichum), Colletotrichum disease indices of avocados were determined with various treatments. […] Mexican avocados size 84 were infected with 103 Colletotrichum spores and treated with 1M NaOH pH 6, 0.01% of an imidazole antifungal agent, such as Prochloraz, 0.2% salicylic acid pH 2.5, or 0.2% salicylic acid pH 6. pH was adjusted with 1M NaOH. Uninfected and infected controls were not exposed to treatments. Infection rate was near 100% for the water treated control. Treatment of infected avocados with pH 2.5. […] Treatment with salicylic acid at pH 2.5 reduced percent infection by nearly 70%. However, the percent disease index remained at 100% during treatment with salicylic acid at a pH of 6 (FIG. 7).

[12] = Avocado storage: CO2 production (respiration) and mass loss, salicylic acid; type: in vivo; settings: Mexican avocados size 60 stored about one month, 0.6 g/L, two days
From the text: (§3) Avocados were Mexican avocados size 60. […] Avocados were monitored for two days for CO2 production (respiration) rate, mass loss, incidence of stem end rot, and severity of stem end rot disease. […] This could be due to changes in the barrier stability or barrier properties when salicylic acid is combined with the mixture of glycerol monostearate and sodium stearate. When comparing the mass loss factor using the salicylic acid+the mixture of glycerol monostearate and sodium stearate to the mixture itself, there was a 0.35× improvement. Severity of stem end rot disease was measured on a 1-4 stem end rot severity scale (STR).

[13] = test system: stem end rot; experiment: Avocado storage, five days: incidence and severity of stem end rot; type: in vivo; settings: Mexican avocados size 60, five days
From the text: as §2

[14] = test system: Colletotrichum; experiment: Salicylic acid and chitosan combinations on stem end rot of infected Mexican avocados; type: in vivo; settings: infected Mexican avocados size 84, 0.2%, compared with the other treatments
Experimental: To determine the impact of salicylic acid and chitosan combinations on stem end rot (Colletotrichum), Mexican avocados size 84 were infected with 103 Colletotrichum spores and treated with 0.01% of an imidazole antifungal agent, such as Prochloraz, 0.1% low molecular weight chitosan (1 g/L), 0.2% salicylic acid, or 0.2% salicylic acid+0.1% chitosan. Uninfected and infected controls were not exposed to treatments. Following treatment, the percent disease index of stem end rot was determined for each avocado.

[15] = Viscosity and pH of salicylic acid and mixture combinations; type: physicochemical; settings: salicylic acid 0.15-1.0 g/L in water
From the text: The viscosity decreased as the mixture concentration increased, and as the salicylic acid concentration increased (FIG. 11A). […] The maximum amount of salicylic acid that could be added was about 2% of the weight of the mixture (FIG. 10).

[16] = test system: Colletotrichum; experiment: Sequential salicylic acid and mixture treatments on stem end rot of infected Mexican avocados; type: in vivo
Experimental: The pH was adjusted with 1M NaOH. Salicylic acid treatments were performed and dried before subsequent treatments with the mixture of glycerol monostearate and sodium stearate were performed for combinatorial treatments. Controls with salicylic acid treatment and a subsequent treatment with water were also performed. Uninfected controls were not exposed to treatments. Following treatment, the disease index of stem end rot was determined for each avocado. […] Salicylic acid was effective in treatments with salicylic acid first and the mixture of glycerol monostearate and sodium stearate treatment second (FIG. 9).

[17] = test system: stem end rot; experiment: Avocado storage: incidence and severity of stem end rot, salicylic acid; type: in vivo; settings: Mexican avocados size 60, 0.6 g/L salicylic acid, two days
From the text: as §3

[18] = infected California avocados size 84, treatment 0.01%

For `CSC(=O)c1cccc2nnsc12` [ASM, Acibenzolar-S-Methyl], the “percent disease index for stem end rot” value [1, 18] was “significantly smaller disease indices compared to the infected control”.
In the case of `COC(=O)c1ccccc1O` [MeSA, methyl salicylate], the “percent disease index for stem end rot” value ([1]; infected California avocados size 84, treatment 0.1%) is reported as “no observed effect”.
With `CCCN(CCOc1c(Cl)cc(Cl)cc1Cl)C(=O)n1ccnc1` [Prochloraz] the “percent disease index of stem end rot” value ([2]; infected California avocados size 96, 0.01%) was “effective at decreasing the disease index compared to the infected control” and the “percent disease index for stem end rot” value [1, 18] was “effective at decreasing the observed disease index”.
For `Cc1ccc(C(C)C)cc1O` [carvacrol], the “disease incidence of vascular browning” value [3] was “almost eliminated disease incidence”, the “damage to lemon skin” value [4] was “skin burns; also recorded: damaged the lemon skin” and the “carvacrol lemon skin burns” value [5] was “prevented carvacrol lemon skin burns”. The “damage to lemon skin” value [6] was “damaged the lemon skin”, the “respiration (CO2 production)” value ([7]; California avocados sized 96, 10 g/L carvacrol alone) was “may have accelerated respiration” and the mass loss ([7]; California avocados sized 96, 10 g/L carvacrol, versus untreated avocados) was “negligible effect on mass loss”. For the same compound, the “disease incidence of stem end rot” value [8] was “almost eliminated disease incidence”.
In the case of `O=C(O)c1ccccc1O` [salicylic acid], the germination ([9]; pH 2.5) is listed as “inhibits germination”, the germination ([9]; pH raised to pH 6) is listed as “loses its inhibitory effect” and the “CO2 production (respiration)” value [10] is listed as “did not increase CO2 production (respiration) compared to the control”. For the same compound, the “reduction of percent infection” value ([11]; infected Mexican avocados size 84, 0.2% salicylic acid pH 2.5) was ~70%, the percent disease index ([11]; infected Mexican avocados size 84, 0.2% salicylic acid pH 6) was 100% and the “CO2 production (respiration) rate” value [12] was “increased the respiration compared to the control”. For the same compound, the “incidence of stem end rot” value [13] was “slight reductions”, the “severity of stem end rot (1-4 STR scale)” value [13] was “slight reductions” and the “percent disease index of stem end rot” value ([2]; infected California avocados size 96, 0.05%) was “reduced the stem end rot disease index”. For the same compound, the “percent disease index of stem end rot” value ([2]; infected California avocados size 96, 0.1%) was “reduced the stem end rot disease index”, the “percent disease index of stem end rot” value ([2]; infected California avocados size 96, 0.2%) was “reduced the stem end rot disease index; also recorded: most effective” and the “percent disease index of stem end rot” value [14] was “greatest effect”. For the same compound, the pH in water [15] was 2-2.5, the “percent disease index of stem end rot versus infected water control” value ([16]; infected Mexican avocados size 84, decreased concentration (0.06%), pH 2.3) was “more effective than then infected water control treatment” and the “percent disease index of stem end rot, effect of decreasing concentration” value ([16]; infected Mexican avocados size 84, from 0.2% to 0.06%, pH 2.3) was “reduced the effectiveness of the treatment”. For the same compound, the “percent disease index of stem end rot” value ([16]; salicylic acid treatment dried, then a second treatment (mixture or water)) was “reduced the percent disease indices”, the “incidence of stem end rot” value [17] was “not incidence” and the “severity of stem end rot disease (1-4 STR scale)” value [17] was “reduce the severity”.
In the case of `O=C([O-])c1ccccc1O.[Na+]` [sodium salicylate], the “percent disease index of stem end rot” value ([2]; infected California avocados size 96, 1%) is reported as “did not significantly reduce the disease index”.
